Laboratory results published in patent publication US20240383922A1, “KRAS Modulating Compounds” (Gilead Sciences, Inc., priority 2023, published 2024).
Like-named read-outs stand apart in the source and are kept apart here.

Tests used:
[1] = test system: cellular pERK in Kuramochi (WT KRAS) cell-line; test: Cell based pERK assay (HTRF), Kuramochi; conditions: Kuramochi (WT KRAS) cells, 2 hours incubation
Method: (§1) Compounds were tested in a 384-well assay format for their ability to inhibit cellular pERK in Kuramochi (WT KRAS), MIA-PaCa-2 (KRAS-G12C), ASPC-1 (KRAS G12D), and NCI-H441 (KRAS-G12V) cell-lines. Compounds were serially diluted (1:3) in DMSO. On day −1, 80 uL of cells were plated per well in the 384 well tissue-culture plates (Greiner: Cat #781080) to seed 5000 cells per wells of AsPC-1 or 7500 cells of MIA-PaCa-2, NCI-H441, and Kuramochi cell lines in RPMI (Corning: Cat #10-040-CM) with 10% fetal bovine serum (FBS) (HyClone: Cat #SH30071-03) and 1× penicillin-streptomycin-glutamate (PSG) (Corning: Cat #30-009-CI) for […] and Kuramochi cell lines and DMEM (Corning: Cat #15-018-CM) with […] and 1× PSG for MKA-PaCa-2 cell line. The plates were then incubated overnight at 37° C. and 5% CO2. On day 0, 400 nL of compound/well was added into the cell plates and mixed 5 times by pipetting using a Beckmann Biomek FX. The cell plates were then incubated for 2 hours at 37° C. and 5% CO2. HTRF Advanced Phospho-ERK1/2 ([…]) Detection Kits (PerkinElmer: Cat #64AERPEG) were used to prepare the lysis and detection solution according to manufacturer protocol. Following the 2 hour incubation, 70 μL of medium was aspirated from the plates and 10 uL of lysis and detection solution was added to the plates using a Biotek EL406 washer and dispenser. Plates were sealed and stored overnight at room temperature. HTRF ratio (665 nm/615 nm) was read by Envision multimode reader (PerkinElmer) the next day. The TR-FRET ratios were normalized to a positive (saturating concentration of known inhibitor) and negative (DMSO) control and plotted against the log of compound concentration. IC50 values were defined as the compound concentration that causes a […] in normalized signal and were calculated using a sigmoidal dose-response model to generate curve fits.

GDP-loaded KRAS-G12C = GDP-loaded KRAS-G12C (Homo sapiens (Human), UniProt P01116, G12C); test: KRAS (GDP) biochemical TR-FRET probe displacement assay, KRAS-G12C; type: binding; conditions: 2 hours
Chain of GDP-loaded KRAS-G12C (P01116-2 other isoform, or with tags, fused parts or gaps G12C): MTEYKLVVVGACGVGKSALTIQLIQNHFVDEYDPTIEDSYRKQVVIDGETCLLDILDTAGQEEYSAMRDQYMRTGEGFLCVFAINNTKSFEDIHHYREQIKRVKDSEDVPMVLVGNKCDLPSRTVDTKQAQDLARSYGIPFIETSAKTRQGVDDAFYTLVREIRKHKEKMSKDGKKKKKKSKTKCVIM
Method: (§2) KRAS (GDP) Biochemical Assays:
(§3) Compounds were serially diluted (1:3) in DMSO. The LabCyte ECHO Acoustic dispenser was used to pre-spot the assay plates (384-well Non-Binding Surface plates, Corning, Catalog #3824) with 50 nL of compound. 5 μL of 2× enzyme concentration was added to the pre-spotted plates and incubated for 30 minutes before adding 5 μL of 2× concentration of Eu-streptavidin and Cy-5 labelled probe (10 μL final reaction volume). The plates were incubated at room temperature for 2 hours before measuring TR-FRET ratio (665 nm/615 nm) on the Envision multimode plate reader. The ratios were normalized to a positive (saturating concentration of known inhibitor) and negative (DMSO) control and plotted against the log of compound concentration.

[2] = test system: cellular pERK in MIA-PaCa-2 (KRAS-G12C) cell-line; test: Cell based pERK assay (HTRF), MIA-PaCa-2; conditions: MIA-PaCa-2 (KRAS-G12C) cells, 2 hours incubation, read-out: MIAPaCa2 pERK EC50
Method: as §1

[3] = molecular target: GDP-loaded wild-type KRAS (WT) (Homo sapiens (Human), UniProt P01116); test: KRAS (GDP) biochemical TR-FRET probe displacement assay, WT KRAS; type: binding; conditions: 2 hours
Chain of GDP-loaded wild-type KRAS (WT) (P01116-2 other isoform, or with tags, fused parts or gaps): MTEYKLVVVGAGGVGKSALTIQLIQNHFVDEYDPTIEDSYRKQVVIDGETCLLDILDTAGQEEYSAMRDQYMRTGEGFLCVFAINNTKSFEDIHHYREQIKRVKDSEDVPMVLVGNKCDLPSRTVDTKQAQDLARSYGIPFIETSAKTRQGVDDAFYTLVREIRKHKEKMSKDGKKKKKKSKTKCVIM
Method: as §2, §3

[4] = test system: cellular pERK in NCI-H441 (KRAS-G12V) cell-line; test: Cell based pERK assay (HTRF), NCI-H441; conditions: NCI-H441 (KRAS-G12V) cells, 2 hours incubation
Method: as §1

GDP-loaded KRAS-G12V = GDP-loaded KRAS-G12V (Homo sapiens (Human), UniProt P01116, G12V); test: KRAS (GDP) biochemical TR-FRET probe displacement assay, KRAS-G12V; type: binding; conditions: 2 hours
Chain of GDP-loaded KRAS-G12V (P01116-2 other isoform, or with tags, fused parts or gaps G12V): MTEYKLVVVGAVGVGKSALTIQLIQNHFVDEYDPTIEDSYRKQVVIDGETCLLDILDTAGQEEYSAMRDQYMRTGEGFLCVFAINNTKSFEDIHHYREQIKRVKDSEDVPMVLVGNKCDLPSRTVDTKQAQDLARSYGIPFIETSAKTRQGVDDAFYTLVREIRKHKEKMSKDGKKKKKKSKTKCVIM
Method: as §2, §3

[5] = test system: cellular pERK in ASPC-1 (KRAS G12D) cell-line; test: Cell based pERK assay (HTRF), ASPC-1; conditions: ASPC-1 (KRAS G12D) cells, 2 hours incubation
Method: as §1

GDP-loaded KRAS-G12D = GDP-loaded KRAS-G12D (Homo sapiens (Human), UniProt P01116, G12D); test: KRAS (GDP) biochemical TR-FRET probe displacement assay, KRAS-G12D; type: binding; conditions: 2 hours
Chain of GDP-loaded KRAS-G12D (P01116-2 other isoform, or with tags, fused parts or gaps G12D): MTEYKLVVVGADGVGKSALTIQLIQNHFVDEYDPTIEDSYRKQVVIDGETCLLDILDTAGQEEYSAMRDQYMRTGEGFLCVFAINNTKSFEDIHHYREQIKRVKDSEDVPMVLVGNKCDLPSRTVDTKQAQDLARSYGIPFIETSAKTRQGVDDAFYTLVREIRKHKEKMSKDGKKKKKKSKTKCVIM
Method: as §2, §3

EC50 [1]	IC50 (GDP-loaded KRAS-G12C)	EC50 ([2]; Homo sapiens)	IC50 [3]	EC50 ([4]; Homo sapiens)	IC50 (GDP-loaded KRAS-G12V)	EC50 ([5]; Homo sapiens, ASPC1)	IC50 (GDP-loaded KRAS-G12D)	EC50 [2]	EC50 [4]	EC50 ([5]; read-out: AsPC1 pERK EC50)	Compound
1.59 nM	0.06 nM	0.23 nM	0.06 nM	2.14 nM	0.1 nM	11.7 nM	0.15 nM	–	–	–	C#Cc1c(F)ccc2cc(O)cc(-c3nc4c5c(nc(OC[C@@]67CCCN6C[C@H](F)C7)nc5c3F)N3CCOCCC3CC4)c12 (mixture of isomers) [Example 6-13]
5.94 nM	0.54 nM	1.08 nM	0.88 nM	1.78 nM	0.4 nM	3.12 nM	0.87 nM	–	–	–	C#Cc1c(F)ccc2cc(O)cc(-c3c(F)c4c5c(nc(OC[C@@]67CCCN6C[C@H](F)C7)nc5c3F)N3CCCOC[C@@H]3CC4)c12 (mixture of isomers) [Example 6-21]
> 1000 nM	> 1000 nM	–	> 1000 nM	–	> 1000 nM	–	> 1000 nM	> 1000 nM	> 1000 nM	> 1000 nM	C#Cc1c(F)ccc2cc(O)cc(-c3nc4c5c(nc(OC[C@@]67CCCN6C[C@H](F)C7)nc5c3F)N3CCCCC3CCn3nncc3-4)c12 (mixture of isomers) [Example 11-1, 5-ethynyl-6-fluoro-4-(1-fluoro-14-(((2R,7aS)-2-fluorotetrahydro-1H-pyrrolizin-7a(5H)-yl)methoxy)-8,8a,9,10,11,12-hexahydro-7H-3,5,6,6a,12a,13,15-heptaazabenzo[4,5]cyclopenta[8,9]cyclonona[1,2,3-de]naphthalen-2-yl)naphthalen-2-ol]
85.9 nM	13.4 nM	115 nM	–	272 nM	17.1 nM	216 nM	22.2 nM	–	–	–	C#Cc1c(F)ccc2cccc(-c3nc4c5c(nc(OCC6(CN7CCCCC7)CC6)nc5c3F)N3CCCOC[C@@H]3CC4)c12 [Example 15-2]
242 nM	33.1 nM	231 nM	–	543 nM	30.9 nM	647 nM	42.3 nM	–	–	–	C#Cc1c(F)ccc2cccc(-c3nc4c5c(nc(OC[C@@]67CCCN6[C@H](COC(=O)N(CC)CC)CC7)nc5c3F)N3CCCOC[C@@H]3CC4)c12 [Example 16-1, ((3S,7aS)-7a-((((S)-2-(8-ethynyl-7-fluoronaphthalen-1-yl)-1-fluoro-4,5,5a,6,9,10-hexahydro-8H-7-oxa-3,10a,11,13-tetraazanaphtho[1,8-ab]heptalen-12-yl)oxy)methyl)hexahydro-1H-pyrrolizin-3-yl)methyl diethylcarbamate]
5.23 nM	–	2.76 nM	–	12.7 nM	–	14 nM	–	–	–	–	C#Cc1c(F)ccc2cccc(-c3nc4c5c(nc(OC[C@@]67CCCN6[C@H](COC(=O)NCC)CC7)nc5c3F)N3CCCOC[C@@H]3CC4)c12 [Example 16-3]
582 nM	–	> 1000 nM	–	> 1000 nM	–	> 1000 nM	–	–	–	–	Oc1cc(-c2nc3c4c(nc(OC[C@@]56CCCN5C[C@H](F)C6)nc4c2F)N2CCCOC[C@@H]2CC3)c2c(Cl)cccc2c1 [Example 19-1, 5-chloro-4-((S)-1-fluoro-12-(((2R,7aS)-2-fluorotetrahydro-1H-pyrrolizin-7a(5H)-yl)methoxy)-4,5,5a,6,9,10-hexahydro-8H-7-oxa-3,10a,11,13-tetraazanaphtho[1,8-ab]heptalen-2-yl)naphthalen-2-ol]
6.34 nM	–	8.73 nM	–	42.3 nM	–	42.5 nM	–	–	–	–	C#Cc1c(F)ccc2cc(O)cc(-c3nc4c5c(nc(OC[C@@]67CCCN6C[C@H](F)C7)nc5c3F)N3CCCCC[C@@H]3CC4)c12 [Example 20-1, 5-ethynyl-6-fluoro-4-((R)-1-fluoro-12-(((2R,7aS)-2-fluorotetrahydro-1H-pyrrolizin-7a(5H)-yl)methoxy)-4,5,5a,6,7,8,9,10-octahydro-3,10a,11,13-tetraazanaphtho[1,8-ab]heptalen-2-yl)naphthalen-2-ol]
8.15 nM	–	102 nM	–	54.8 nM	–	92.1 nM	–	–	–	–	C#Cc1c(F)ccc2cc(O)cc(-c3nc4c5c(nc(OC[C@@]67CCCN6C[C@@H](F)C7)nc5c3F)N3CCCOC[C@@H]3CC4)c12 [Example 22-1, 5-ethynyl-6-fluoro-4-((S)-1-fluoro-12-(((2S,7aS)-2-fluorotetrahydro-1H-pyrrolizin-7a(5H)-yl)methoxy)-4,5,5a,6,9,10-hexahydro-8H-7-oxa-3,10a,11,13-tetraazanaphtho[1,8-ab]heptalen-2-yl)naphthalen-2-ol]
1.63 nM	–	0.18 nM	–	1.06 nM	–	1.49 nM	–	–	–	–	C#Cc1c(F)ccc2cc(O)cc(-c3nc4c5c(nc(OC[C@@]67CCCN6CC(=C)C7)nc5c3F)N3CCCOCC3CC4)c12 (stereo partly shown) [Example 22-2]
2.55 nM	–	0.47 nM	–	1.17 nM	–	3.75 nM	–	–	–	–	C#Cc1c(F)ccc2cc(O)cc(-c3nc4c5c(nc(OC[C@@]67CCCN6C[C@@]6(CC6(F)F)C7)nc5c3F)N3CCCOC[C@@H]3CC4)c12 [Example 22-3]
79.7 nM	–	70 nM	–	212 nM	–	128 nM	–	–	–	–	C#Cc1c(F)ccc2cc(O)cc(-c3nc4c5c(nc(OC[C@@]67CCCN6C[C@H](F)C7)nc5c3F)N3CCCOCC3C[C@@H]4O)c12 (stereo partly shown) [Example 22-5]
28.8 nM	–	17.4 nM	–	58.7 nM	–	97.1 nM	–	–	–	–	C#Cc1c(F)ccc2cc(O)cc(-c3nc4c5c(nc(OC[C@@]67CCCN6C[C@H](F)C7)nc5c3F)N3CCCOCC3C[C@H]4F)c12 (stereo partly shown) [Example 22-6]
0.95 nM	–	8.03 nM	–	3.13 nM	–	14.4 nM	–	–	–	–	C#Cc1c(F)c(F)cc2cc(N)cc(-c3nc4c5c(nc(OC[C@@]67CCCN6C[C@H](F)C7)nc5c3F)N3CCCOC[C@@H]3CC4)c12 [Example 23-1, 5-ethynyl-6,7-difluoro-4-((S)-1-fluoro-12-(((2R,7aS)-2-fluorotetrahydro-1H-pyrrolizin-7a(5H)-yl)methoxy)-4,5,5a,6,9,10-hexahydro-8H-7-oxa-3,10a,11,13-tetraazanaphtho[1,8-ab]heptalen-2-yl)naphthalen-2-amine]
1.37 nM	–	0.87 nM	–	1.67 nM	–	5.33 nM	–	–	–	–	C#Cc1c(F)c(F)cc2cc(N)cc(-c3nc4c5c(nc(OC[C@@]67CCCN6C/C(=C\F)C7)nc5c3F)N3CCCOC[C@@H]3CC4)c12 [Example 23-2]
7.54 nM	–	20.3 nM	–	75.9 nM	–	105 nM	–	–	–	–	C#Cc1c(F)c(F)cc2cc(N)cc(-c3nc4c5c(nc(OCC67CCCN6CCC7)nc5c3F)N3CCCOC[C@@H]3CC4)c12 [Example 23-3]
